Experimental data published in ChEMBL document CHEMBL1201862, “PubChem BioAssay data set” (2004).
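Method: 48-hour compound exposure of cells in 96-well plates, five concentrations, linear interpolation of endpoints. GI50 = concentration required for 50% inhibition of growth.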 Active and inactive are the calls of the source. Rule as the data show it: active = GI50 up to about 1.1 µM and inactive = higher.

Columns and labels:
Assay in all cases: DTP human tumour cell line panel, 48 h
KM12 = tested on: KM12
NCI/ADR-RES = tested on: NCI/ADR-RES
SF-268 = tested on: SF-268
NCI-H226 = tested on: NCI-H226
TK-10 = tested on: TK-10
SN12C = tested on: SN12C
ACHN = tested on: ACHN
SK-MEL-5 = tested on: SK-MEL-5
MDA-MB-435 = tested on: MDA-MB-435
LOX IMVI = tested on: LOX IMVI
MOLT-4 = tested on: MOLT-4
HOP-92 = tested on: HOP-92
RPMI-8226 = tested on: RPMI-8226
MDA-N = tested on: MDA-N
CAKI-1 = tested on: CAKI-1
SK-MEL-28 = tested on: SK-MEL-28
HL-60 = tested on: HL-60
786-0 = tested on: 786-0
COLO 205 = tested on: COLO 205
A498 = tested on: A498
HCT-15 = tested on: HCT-15
SNB-75 = tested on: SNB-75
DU-145 = tested on: DU-145
IGROV-1 = tested on: IGROV-1
SK-MEL-2 = tested on: SK-MEL-2
EKVX = tested on: EKVX
HT-29 = tested on: HT-29
UO-31 = tested on: UO-31
PC-3 = tested on: PC-3
RXF 393 = tested on: RXF 393
SF-295 = tested on: SF-295
U-251 = tested on: U-251
MCF7 = tested on: MCF7
SW-620 = tested on: SW-620
OVCAR-5 = tested on: OVCAR-5
OVCAR-4 = tested on: OVCAR-4
SF-539 = tested on: SF-539
HCT-116 = tested on: HCT-116
HOP-62 = tested on: HOP-62
A549 = tested on: A549
NCI-H460 = tested on: NCI-H460
T47D = tested on: T47D
NCI-H522 = tested on: NCI-H522
Hs-578T = tested on: Hs-578T
OVCAR-8 = tested on: OVCAR-8
SNB-19 = tested on: SNB-19
OVCAR-3 = tested on: OVCAR-3
SR = tested on: SR
HCC 2998 = tested on: HCC 2998
Malme-3M = tested on: Malme-3M
NCI-H23 = tested on: NCI-H23
UACC-62 = tested on: UACC-62
SK-OV-3 = tested on: SK-OV-3
M14 = tested on: M14
UACC-257 = tested on: UACC-257
MDA-MB-231 = tested on: MDA-MB-231
BT-549 = tested on: BT-549
K562 = tested on: K562
CCRF-CEM = tested on: CCRF-CEM

## COc1ccccc1OC(=O)/C=C/c1ccccc1
KM12
  GI50: > 100 µM (inactive)
NCI/ADR-RES
  GI50: > 100 µM (inactive)
SF-268
  GI50: 52.1 µM (inactive)
NCI-H226
  GI50: > 100 µM (inactive)
TK-10
  GI50: 84.1 µM (inactive)
SN12C
  GI50: > 100 µM (inactive)
ACHN
  GI50: > 100 µM (inactive)
SK-MEL-5
  GI50: > 100 µM (inactive)
MDA-MB-435
  GI50: > 100 µM (inactive)
LOX IMVI
  GI50: > 100 µM (inactive)
MOLT-4
  GI50: 17.4 µM (inactive)
HOP-92
  GI50: > 100 µM (inactive)
RPMI-8226
  GI50: 5.33 µM (inactive)
MDA-N
  GI50: > 100 µM (inactive)
CAKI-1
  GI50: > 100 µM (inactive)
SK-MEL-28
  GI50: > 100 µM (inactive)
HL-60
  GI50: 64.1 µM (inactive)
786-0
  GI50: > 100 µM (inactive)
COLO 205
  GI50: > 100 µM (inactive)
A498
  GI50: > 100 µM (inactive)
HCT-15
  GI50: > 100 µM
SNB-75
  GI50: > 100 µM (inactive)
DU-145
  GI50: > 100 µM (inactive)
IGROV-1
  GI50: > 100 µM (inactive)
SK-MEL-2
  GI50: > 100 µM (inactive)
EKVX
  GI50: > 100 µM (inactive)
HT-29
  GI50: > 100 µM (inactive)
UO-31
  GI50: > 100 µM (inactive)
PC-3
  GI50: > 100 µM (inactive)
RXF 393
  GI50: > 100 µM (inactive)
SF-295
  GI50: 40.2 µM (inactive)
U-251
  GI50: > 100 µM (inactive)
MCF7
  GI50: > 100 µM (inactive)
SW-620
  GI50: > 100 µM (inactive)
OVCAR-5
  GI50: > 100 µM (inactive)
OVCAR-4
  GI50: > 100 µM (inactive)
SF-539
  GI50: > 100 µM (inactive)
HCT-116
  GI50: > 100 µM (inactive)
HOP-62
  GI50: 52.1 µM (inactive)
A549
  GI50: > 100 µM (inactive)
NCI-H460
  GI50: 33 µM (inactive)
T47D
  GI50: > 100 µM (inactive)
NCI-H522
  GI50: > 100 µM (inactive)
Hs-578T
  GI50: > 100 µM (inactive)
OVCAR-8
  GI50: > 100 µM (inactive)
SNB-19
  GI50: > 100 µM (inactive)
OVCAR-3
  GI50: > 100 µM (inactive)
SR
  GI50: > 100 µM (inactive)
HCC 2998
  GI50: > 100 µM (inactive)
Malme-3M
  GI50: > 100 µM (inactive)
NCI-H23
  GI50: > 100 µM (inactive)
UACC-62
  GI50: > 100 µM (inactive)
SK-OV-3
  GI50: > 100 µM (inactive)
M14
  GI50: > 100 µM (inactive)
UACC-257
  GI50: 35.8 µM (inactive)
MDA-MB-231
  GI50: > 100 µM (inactive)
BT-549
  GI50: > 100 µM (inactive)

## O=c1c2cnccc2cc2c3ccccc3ccn12
KM12
  GI50: 5.64 µM (inactive)
NCI/ADR-RES
  GI50: > 100 µM (inactive)
SF-268
  GI50: 86.1 µM (inactive)
NCI-H226
  GI50: > 100 µM (inactive)
TK-10
  GI50: 24.3 µM (inactive)
SN12C
  GI50: 61.2 µM (inactive)
ACHN
  GI50: 19.3 µM (inactive)
SK-MEL-5
  GI50: 46.1 µM (inactive)
MDA-MB-435
  GI50: 97.3 µM (inactive)
LOX IMVI
  GI50: 18.9 µM (inactive)
MOLT-4
  GI50: 5.21 µM (inactive)
HOP-92
  GI50: > 100 µM (inactive)
RPMI-8226
  GI50: 19.9 µM (inactive)
MDA-N
  GI50: > 100 µM (inactive)
CAKI-1
  GI50: 9.89 µM (inactive)
SK-MEL-28
  GI50: > 100 µM (inactive)
HL-60
  GI50: 17.7 µM (inactive)
786-0
  GI50: 84.7 µM (inactive)
COLO 205
  GI50: 63.2 µM (inactive)
A498
  GI50: > 100 µM (inactive)
HCT-15
  GI50: 23.1 µM
SNB-75
  GI50: 61 µM (inactive)
DU-145
  GI50: > 100 µM (inactive)
K562
  GI50: 37.9 µM (inactive)
IGROV-1
  GI50: 6.15 µM (inactive)
SK-MEL-2
  GI50: > 100 µM (inactive)
EKVX
  GI50: 3.63 µM (inactive)
HT-29
  GI50: 28.2 µM (inactive)
UO-31
  GI50: 23.1 µM (inactive)
PC-3
  GI50: 77.8 µM (inactive)
RXF 393
  GI50: > 100 µM (inactive)
SF-295
  GI50: > 100 µM (inactive)
U-251
  GI50: 68.4 µM (inactive)
MCF7
  GI50: 13.2 µM (inactive)
SW-620
  GI50: 49.8 µM (inactive)
OVCAR-5
  GI50: > 100 µM (inactive)
OVCAR-4
  GI50: 50.4 µM (inactive)
SF-539
  GI50: > 100 µM (inactive)
HCT-116
  GI50: 31.8 µM (inactive)
HOP-62
  GI50: > 100 µM (inactive)
A549
  GI50: 45.8 µM (inactive)
NCI-H460
  GI50: 5.78 µM (inactive)
T47D
  GI50: 32.4 µM (inactive)
NCI-H522
  GI50: 45.6 µM (inactive)
Hs-578T
  GI50: 71.8 µM (inactive)
OVCAR-8
  GI50: 11.6 µM (inactive)
SNB-19
  GI50: > 100 µM (inactive)
OVCAR-3
  GI50: > 100 µM (inactive)
SR
  GI50: 2.03 µM (inactive)
HCC 2998
  GI50: 53.7 µM (inactive)
Malme-3M
  GI50: 57.3 µM (inactive)
NCI-H23
  GI50: 51.6 µM (inactive)
UACC-62
  GI50: 4.7 µM (inactive)
CCRF-CEM
  GI50: 36.6 µM (inactive)
SK-OV-3
  GI50: > 100 µM (inactive)
M14
  GI50: > 100 µM (inactive)
UACC-257
  GI50: > 100 µM (inactive)
MDA-MB-231
  GI50: > 100 µM (inactive)
BT-549
  GI50: 65.6 µM (inactive)
